Several values for one entry are separate records, joined by “and”; a condition that tells them apart may be missing. Identical values can stand only once. Like-named read-outs stand apart in the source and are kept apart here.
How the values were obtained:
[1] = biological target: T1, COI1/JAZ1 complex (Arabidopsis thaliana, UniProt O04197+Q9LMA8); assay: Saturation radioligand binding of 3H-coronatine to COI1/ASK1 in the presence of JAZ1
T1 construct: Full-length Arabidopsis thaliana COI1 and ASK1 were co-expressed; Full-length JAZ substrate proteins were expressed as 6×His-fusion proteins in Escherichia coli; GST (cleaved yes); 6xHis; made in house; host or cells: Hi5 insect cells (COI1/ASK1); Escherichia coli (JAZ1)
T1 sequence (O04197 1-592): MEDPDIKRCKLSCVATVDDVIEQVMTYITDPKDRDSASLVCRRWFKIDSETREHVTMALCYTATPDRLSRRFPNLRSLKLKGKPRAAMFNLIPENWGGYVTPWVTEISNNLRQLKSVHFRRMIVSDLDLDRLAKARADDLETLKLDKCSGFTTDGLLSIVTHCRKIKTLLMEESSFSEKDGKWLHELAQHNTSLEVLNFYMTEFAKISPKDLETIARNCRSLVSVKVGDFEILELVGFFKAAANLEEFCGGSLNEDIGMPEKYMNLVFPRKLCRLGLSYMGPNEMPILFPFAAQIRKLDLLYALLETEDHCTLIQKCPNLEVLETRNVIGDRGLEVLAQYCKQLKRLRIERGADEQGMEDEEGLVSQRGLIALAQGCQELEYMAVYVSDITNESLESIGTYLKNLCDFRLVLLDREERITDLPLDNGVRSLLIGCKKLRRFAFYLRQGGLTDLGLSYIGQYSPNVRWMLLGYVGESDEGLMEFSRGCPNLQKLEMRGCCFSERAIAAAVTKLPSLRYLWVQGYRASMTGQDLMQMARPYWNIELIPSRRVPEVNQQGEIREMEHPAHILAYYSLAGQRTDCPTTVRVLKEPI
T1 sequence (Q39255 1-160 partner): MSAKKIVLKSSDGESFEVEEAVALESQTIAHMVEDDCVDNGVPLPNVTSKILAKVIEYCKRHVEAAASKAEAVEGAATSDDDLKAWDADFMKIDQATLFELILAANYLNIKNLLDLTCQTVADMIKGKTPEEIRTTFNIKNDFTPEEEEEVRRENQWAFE
T1 sequence (Q9LMA8 1-253): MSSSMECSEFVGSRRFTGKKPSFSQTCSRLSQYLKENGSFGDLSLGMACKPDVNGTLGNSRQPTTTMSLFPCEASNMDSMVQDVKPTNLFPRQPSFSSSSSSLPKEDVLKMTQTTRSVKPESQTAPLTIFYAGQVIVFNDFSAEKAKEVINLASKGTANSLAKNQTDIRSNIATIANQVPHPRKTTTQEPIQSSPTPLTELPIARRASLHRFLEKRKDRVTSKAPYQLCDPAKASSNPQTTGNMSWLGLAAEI
Description: (§1) (^3H)-labeled coronatine was synthesized by Amersham. Full-length Arabidopsis thaliana COI1 and ASK1 were co-expressed as a glutathione S-transferase (GST) fusion protein and an untagged protein, respectively, in Hi5 suspension insect cells. The COI1/ASK1 complex was isolated from the soluble cell lysate by glutathione affinity chromatography. After on-column tag cleavage by tobacco etch virus protease, the complex was further purified by anion exchange and gel filtration chromatography and concentrated by ultrafiltration to 12-18 mg ml^−1. Full-length JAZ substrate proteins were expressed as 6×His-fusion proteins in Escherichia coli and purified on Ni-NTA resin with subsequent dialysis into 20 mM Tris-HCl, pH 8.0, 200 mM NaCl, and 10% glycerol.
(§2) Radioligand binding was assayed on purified proteins, with 2 mg COI1/ASK1 complex and JAZ proteins at a 1:3 molar ratio. […] Nonspecific binding was determined in the presence of […] coronatine. Competition binding experiments were conducted with serial dilutions of JA-Ile in the presence of 100 nM ^3H coronatine with nonspecific binding determined in the presence of […] coronatine. Total binding was determined in the presence of vehicle only. Two-point binding experiments were performed in the presence of 100 nM or 300 nM ^3H-coronatine with nonspecific binding determined in the presence of 300 mM coronatine. […]

[2] = biological target: T2, COI1-JAZ6 complex (Arabidopsis thaliana, UniProt O04197+Q9C9E3); assay: Saturation radioligand binding of 3H-coronatine to COI1/ASK1 in the presence of JAZ6
T2 construct: Full-length Arabidopsis thaliana COI1 and ASK1 were co-expressed; Full-length JAZ substrate proteins were expressed as 6×His-fusion proteins in Escherichia coli; GST (cleaved yes); 6xHis; made in house; host or cells: Hi5 insect cells (COI1/ASK1); Escherichia coli (JAZ6)
T2 sequence (O04197 1-592): T1 sequence (O04197 1-592)
T2 sequence (Q39255 1-160 partner): T1 sequence (Q39255 1-160 partner)
T2 sequence (Q9C9E3 1-269): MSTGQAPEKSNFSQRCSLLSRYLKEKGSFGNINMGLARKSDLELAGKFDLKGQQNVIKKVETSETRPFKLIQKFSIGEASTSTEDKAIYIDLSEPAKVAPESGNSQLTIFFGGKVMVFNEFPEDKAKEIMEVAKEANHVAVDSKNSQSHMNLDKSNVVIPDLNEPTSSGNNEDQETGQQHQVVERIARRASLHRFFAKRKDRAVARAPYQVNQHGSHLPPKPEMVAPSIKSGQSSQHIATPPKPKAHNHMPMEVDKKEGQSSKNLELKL
Description: as §1
(§3) Radioligand binding was assayed on purified proteins, with 2 mg COI1/ASK1 complex and JAZ proteins at a 1:3 molar ratio. Reactions were prepared in […] final volume and in a binding buffer containing 20 mM Tris-HCl 200 mM NaCl, and 10% glycerol. Saturation binding experiments were conducted with serial dilutions of 3H-coronatine in binding buffer. Nonspecific binding was determined in the presence of […] coronatine. Competition binding experiments were conducted with serial dilutions of JA-Ile in the presence of 100 nM ^3H coronatine with nonspecific binding determined in the presence of […] coronatine. Total binding was determined in the presence of vehicle only. Two-point binding experiments were performed in the presence of 100 nM or 300 nM ^3H-coronatine with nonspecific binding determined in the presence of […] coronatine. Following incubation with mixing at 4° C., all samples were collected with a cell harvester (Brandel, Gaithersburg, Md.) on polyethyleneimine (Sigma)-treated filters. […] Saturation binding experiments were analyzed by nonlinear regression, competition binding experiments by nonlinear regression with Ki calculation as described previously (Cheng 1973), and concentration-response data by sigmoidal dose-response curve fitting, all using GraphPad Prism version 4.00 for MacOSX.

[3] = biological target: T3, COI1 (Arabidopsis thaliana, UniProt O04197); assay: Radioligand binding of 3H-coronatine to COI1 alone
T3 construct: Full-length Arabidopsis thaliana COI1 and ASK1 were co-expressed; GST (cleaved yes); made in house; host or cells: Hi5 insect cells (COI1/ASK1); JAZ peptides synthetic
T3 sequence (O04197 1-592): T1 sequence (O04197 1-592)
T3 sequence (Q39255 1-160 partner): T1 sequence (Q39255 1-160 partner)
Description: as §1, §3

[4] = biological target: T4, full-length JAZ6 (Arabidopsis thaliana, UniProt Q9C9E3); assay: Radioligand binding of 3H-coronatine to full-length JAZ6 alone
T4 construct: 6xHis; made in house; host or cells: Escherichia coli
T4 sequence (Q9C9E3 1-269): T2 sequence (Q9C9E3 1-269)
Description: as §1, §2

Structure (SMILES): CC[C@H]1C=C(C(=O)N[C@@]2(C(=O)O)C[C@@H]2CC)[C@H]2CCC(=O)[C@H]2C1 [coronatine]
- Binding affinity for COI1/JAZ1 complex [1]: high affinity
- Kd ([1]; COI1/JAZ1 complex, listed as 3H-coronatine): 68 nM and 48 nM
- Binding affinity for COI1/JAZ6 complex [2]: high affinity
- Concentration at which binding reached the level of saturation ([2]; COI1/JAZ6 complex): 300 nM
- Kd ([2]; COI1/JAZ6 complex, listed as 3H-coronatine): 48 nM and 68 nM
- Specific binding to COI1 alone ([3]; 300 nM coronatine): < 2%
- Binding affinity for COI1 alone [3]: minimal binding affinity
- Binding affinity for COI1 alone ([3]; listed as 3H-coronatine): no appreciable binding affinity
- Binding affinity for JAZ6 alone [4]: minimal binding affinity
- Binding affinity for JAZ6 alone ([4]; listed as 3H-coronatine): no appreciable binding affinity
